Values after ≈ are worked out from the molar mass of the structure shown.
Legend:
[1] = biological target: T1, Protein kinase C delta type (Homo sapiens, UniProt Q05655); experiment: Inhibition of PKCdelta
Target sequence in this assay (Q05655 whole entry): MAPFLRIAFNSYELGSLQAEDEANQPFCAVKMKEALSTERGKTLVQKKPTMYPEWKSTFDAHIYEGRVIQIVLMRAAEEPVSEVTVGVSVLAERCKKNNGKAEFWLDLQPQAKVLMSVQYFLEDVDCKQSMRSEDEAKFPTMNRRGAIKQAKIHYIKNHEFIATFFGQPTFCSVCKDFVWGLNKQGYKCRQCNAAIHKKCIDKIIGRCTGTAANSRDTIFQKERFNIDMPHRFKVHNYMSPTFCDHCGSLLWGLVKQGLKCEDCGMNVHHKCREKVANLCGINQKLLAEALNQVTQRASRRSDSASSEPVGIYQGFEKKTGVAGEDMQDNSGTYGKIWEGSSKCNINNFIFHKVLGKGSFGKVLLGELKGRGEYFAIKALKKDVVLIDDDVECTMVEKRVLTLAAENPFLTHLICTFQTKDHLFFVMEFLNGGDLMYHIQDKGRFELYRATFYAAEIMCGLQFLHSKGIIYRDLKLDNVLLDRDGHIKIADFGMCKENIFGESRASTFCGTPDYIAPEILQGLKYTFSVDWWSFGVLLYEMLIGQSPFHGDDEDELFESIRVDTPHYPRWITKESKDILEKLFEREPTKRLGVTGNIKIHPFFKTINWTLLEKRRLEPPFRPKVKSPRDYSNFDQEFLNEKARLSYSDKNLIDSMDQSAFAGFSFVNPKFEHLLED

[2] = biological target: T2, Protein kinase C alpha type (Homo sapiens, UniProt P17252); experiment: Inhibition of PKCalpha
[3] = biological target: T3, Protein kinase C beta type (Homo sapiens, UniProt P05771); experiment: Inhibition of PKCbeta2
Target sequence in this assay (P05771 whole entry): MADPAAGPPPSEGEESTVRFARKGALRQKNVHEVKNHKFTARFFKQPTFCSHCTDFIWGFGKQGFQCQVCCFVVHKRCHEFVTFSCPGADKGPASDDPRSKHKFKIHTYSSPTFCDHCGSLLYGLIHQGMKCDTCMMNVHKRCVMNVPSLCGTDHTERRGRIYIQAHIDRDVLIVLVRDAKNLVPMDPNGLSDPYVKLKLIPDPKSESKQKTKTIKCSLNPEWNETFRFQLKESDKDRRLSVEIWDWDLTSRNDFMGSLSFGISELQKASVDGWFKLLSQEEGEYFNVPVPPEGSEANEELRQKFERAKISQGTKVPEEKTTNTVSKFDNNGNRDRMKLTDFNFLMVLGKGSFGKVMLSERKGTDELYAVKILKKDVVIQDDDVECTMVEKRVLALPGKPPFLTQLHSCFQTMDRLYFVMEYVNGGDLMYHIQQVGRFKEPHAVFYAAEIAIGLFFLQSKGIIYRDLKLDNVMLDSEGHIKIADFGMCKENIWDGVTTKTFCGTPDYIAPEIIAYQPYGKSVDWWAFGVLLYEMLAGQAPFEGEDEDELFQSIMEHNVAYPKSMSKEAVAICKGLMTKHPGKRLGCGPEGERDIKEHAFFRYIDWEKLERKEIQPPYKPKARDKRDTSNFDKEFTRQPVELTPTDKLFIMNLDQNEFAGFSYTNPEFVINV

[4] = biological target: T3, Protein kinase C beta type; experiment: Inhibition of PKCbeta1
Target sequence in this assay (P05771 whole entry): as above

[5] = Inhibition of cell adhesion in mouse EL-4.IL-2 cells; type: functional, cell-based
[6] = tested on: P388; experiment: Cytotoxicity against mouse P388 cells; type: functional, cell-based
[7] = tested on: A549; experiment: Cytotoxicity against human A549 cells; type: functional, cell-based
[8] = biological target: T1, Protein kinase C delta type; experiment: Agonist activity at PKCdelta at 50 ug/ml; type: functional
Target sequence in this assay (Q05655 whole entry, looked up): as the sequence (Q05655 whole entry) above

[9] = biological target: Protein kinase C gamma type (Homo sapiens) (UniProt P05129); experiment: Agonist activity at PKCgamma at 50 ug/ml; type: functional
[10] = biological target: T3, Protein kinase C beta type; experiment: Agonist activity at PKCbeta1 at 50 ug/ml; type: functional
Target sequence in this assay (P05771 2-671 limits assumed): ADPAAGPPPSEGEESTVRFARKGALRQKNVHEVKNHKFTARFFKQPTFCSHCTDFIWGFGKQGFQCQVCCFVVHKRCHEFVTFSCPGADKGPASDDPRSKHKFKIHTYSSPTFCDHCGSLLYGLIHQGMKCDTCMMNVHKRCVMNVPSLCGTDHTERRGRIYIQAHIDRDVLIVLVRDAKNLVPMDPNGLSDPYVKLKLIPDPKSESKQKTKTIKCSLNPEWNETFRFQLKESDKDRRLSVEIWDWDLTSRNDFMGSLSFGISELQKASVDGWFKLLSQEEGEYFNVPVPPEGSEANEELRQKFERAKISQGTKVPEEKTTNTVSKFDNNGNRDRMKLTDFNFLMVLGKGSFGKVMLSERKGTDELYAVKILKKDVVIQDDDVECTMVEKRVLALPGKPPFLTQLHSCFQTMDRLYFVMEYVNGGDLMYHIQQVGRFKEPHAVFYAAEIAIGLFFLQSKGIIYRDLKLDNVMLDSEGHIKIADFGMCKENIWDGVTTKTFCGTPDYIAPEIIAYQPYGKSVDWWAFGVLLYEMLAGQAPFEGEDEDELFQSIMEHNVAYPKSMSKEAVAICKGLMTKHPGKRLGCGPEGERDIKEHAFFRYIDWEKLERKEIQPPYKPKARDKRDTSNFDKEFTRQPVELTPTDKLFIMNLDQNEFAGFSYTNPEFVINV

[11] = biological target: T4, Protein kinase C epsilon type (Homo sapiens) (UniProt Q02156); experiment: Agonist activity at PKCepsilon at 50 ug/ml; type: functional
T4 sequence (whole entry): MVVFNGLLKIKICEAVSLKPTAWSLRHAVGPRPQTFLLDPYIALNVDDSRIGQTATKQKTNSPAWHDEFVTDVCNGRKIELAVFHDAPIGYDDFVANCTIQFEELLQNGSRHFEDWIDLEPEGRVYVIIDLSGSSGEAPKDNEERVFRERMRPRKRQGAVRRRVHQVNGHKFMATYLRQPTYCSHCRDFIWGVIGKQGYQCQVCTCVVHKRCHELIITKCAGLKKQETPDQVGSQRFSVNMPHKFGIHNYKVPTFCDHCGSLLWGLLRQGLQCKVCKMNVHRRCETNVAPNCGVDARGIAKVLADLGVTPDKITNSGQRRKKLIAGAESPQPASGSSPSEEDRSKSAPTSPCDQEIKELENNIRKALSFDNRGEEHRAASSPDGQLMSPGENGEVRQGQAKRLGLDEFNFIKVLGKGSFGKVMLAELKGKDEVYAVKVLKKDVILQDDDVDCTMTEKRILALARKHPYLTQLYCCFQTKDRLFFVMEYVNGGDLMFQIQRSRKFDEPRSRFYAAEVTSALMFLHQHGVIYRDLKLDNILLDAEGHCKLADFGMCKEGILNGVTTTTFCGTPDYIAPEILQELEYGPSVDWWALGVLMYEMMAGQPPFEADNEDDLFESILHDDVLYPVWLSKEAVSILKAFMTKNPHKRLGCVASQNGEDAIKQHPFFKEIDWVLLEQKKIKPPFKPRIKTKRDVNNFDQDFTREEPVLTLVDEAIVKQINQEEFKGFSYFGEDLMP

[12] = Induction of cell adhesion in mouse EL-4.IL-2 cells; type: functional, cell-based
[13] = biological target: T2, Protein kinase C alpha type; experiment: Agonist activity at PKCalpha at 50 ug/ml; type: functional
[14] = biological target: T3, Protein kinase C beta type; experiment: Agonist activity at PKCbeta2 at 50 ug/ml; type: functional
Target sequence in this assay (P05771 2-671 limits assumed): as the sequence (P05771 2-671 limits assumed) above

## CCCCCCCCCCCCCCCC[C@@]1(OC)C=C[C@@H](CC(=O)OC)OO1 [CHONDRILLIN]
[1]
  IC50: 55.7 µM
[2]
  IC50: 87.2 µM
[3]
  IC50: 119 µM
[4]
  IC50: 119 µM

## COC(=O)C[C@@]1(C)C[C@](C)(CC(C)CCCCCCc2ccccc2)OO1 (some centres undefined) [EPIPLAKINIC ACID E METHYL ESTER]
[5]
  IC50: 4.6 µg/mL (≈ 12.2 µM)
[6]
  IC50: 2.5 µg/mL (≈ 6.64 µM)
[7]
  IC50: 2 µg/mL (≈ 5.31 µM)

## CC(CCCCCCCCc1ccccc1)C[C@]1(C)C[C@]2(C)OC(=O)C[C@@H]2OO1 (some centres undefined) [PLAKORTOLIDE B]
[8]
  Activity: -9%
[9]
  Activity: -9%
[10]
  Activity: -13%
[6]
  IC50: 0.4 µg/mL (≈ 0.994 µM)
[11]
  Activity: -38%
[12]
  IC50: 4.4 µg/mL (≈ 10.9 µM)
[7]
  IC50: 1.3 µg/mL (≈ 3.23 µM)
[13]
  Activity: -19%
[14]
  Activity: -27%

## CC(CCCCCCc1ccccc1)CC(C)C[C@]1(C)C[C@]2(C)OC(=O)C[C@@H]2OO1 (some centres undefined) [PLAKORTOLIDE D]
[5]
  IC50: 15.8 µg/mL (≈ 37.9 µM)
[6]
  IC50: 0.8 µg/mL (≈ 1.92 µM)
[7]
  IC50: 3.8 µg/mL (≈ 9.12 µM)
